Experimental data from US20250376698A1, “COMPOSITIONS AND METHODS FOR PROMOTING LIVER REGENERATION BY GENE EDITING IN METABOLIC LIVER DISEASE” (priority 2022, published 2025).
Read-outs that look alike come from different tables or passages of the source.

Tests used:
G6Pase activity in liver = test: Liver G6Pase activity in GSD Ia dogs; type: in vivo, dog; details: 32 months of age, before CRISPR (BC), after gene replacement as neonates
Protocol: G6Pase activity and glycogen levels were analyzed at 4- and 16-months following genome editing at 34 months of age as described in (Koeberl, D. et al., (2006). Early, sustained efficacy of adeno-associated virus vector-mediated gene therapy in glycogen storage disease type Ia. Gene Therapy. 13, 1281-1289). Both assays reflected corrections of the biochemical abnormalities in comparison with untreated affected controls. Normal activity was measured in a group of three unaffected dogs (two carriers and one wildtype; both genotypes are accepted as normal controls in published studies of animals with GSD Ia). Briefly, liver biopsy tissues, obtained as described in Example 2, were flash-frozen and stored at −70° C. Glycogen content was measured by complete digestion of polysaccharide using amyloglucosidase (Sigma Chemical Co., St. Louis, MO). The structure of the polysaccharide was inferred by using phosphorylase free of the debranching enzyme to measure the yield of glucose-1-phosphate. Specific G6Pase activity was measured by using glucose-6-phosphate as substrate after subtraction of nonspecific phosphatase activity as estimated by β-glycerophosphate.

[1] = Protocol: Vector genomes in liver were quantified with qPCR. Briefly, AAV vector genome copy number was measured by quantitative real-time PCR with liver genomic DNA and normalized to β-actin. Plasmid DNA corresponding to 0.01 to 100 copies of canine G6Pase gene (in 500 ng genomic DNA) was used in a standard curve. qPCR was performed on a Lightcycler 480 (Roche Diagnostics, Basel, Switzerland) using SYBR Green mix (Thermo-Fisher Scientific, Waltham, MA) and the following primers: cG6Pc Fwd (5′-[…]-3′, SEQ ID NO: 65), cG6Pc Rev (5′-[…]-3′, SEQ ID NO: 66), hG6PC Fwd (5′-[…]-3′, SEQ ID NO: 67), hG6PC Rev (5′-[…]-3′, SEQ ID NO: 68), saCas9 Fwd (5′-[…]-3′, SEQ ID NO: 69), saCas9 Rev (5′-[…]-3′, SEQ ID NO: 70), cB-actin Fwd (5′-[…]-3′, SEQ ID NO: 71), cB-actin Rev (5′-[…]-3′, SEQ ID NO: 72). Cycling conditions were 95° C. for 5 min, followed by 45 cycles of 95° C. for 10 s, 60° C. for 10 s, and 72° C. for 20 s followed by acquisition.
GSD Ia puppies = test: Clinical course (hypoglycemia, survival) of GSD Ia puppies treated as neonates; type: in vivo, dog
From the text: In this example, puppies with GSD Ia were initially treated with AAV-CRISPR/Cas9 and AAV-cG6PC (Donor) to perform neonatal genome editing at 2 days of age, followed by gene replacement therapy with one or more alternative serotypes of AAV to control symptoms of GSD Ia at the indicated ages for the individual puppies (Puppy 1 shown in green, Puppy 2 in purple in FIG. 4A, see Table 3 below for details). The control group of dogs were those described in Example 2 that received 3 doses of gene replacement therapy during infancy.
As shown in FIG. 4A and described in Table 3 below, two puppies with GSD Ia were treated with genome editing as neonates at a 5:1 ratio of AAV7-cG6PC and AAV7-SaCas9. One puppy was dosed at 4×10^13 vp/kg AAV7-cG6PC and 8×10^12 vp/kg AAV7-SaCas9. The other was dosed with 5×10^13 vp/kg AAV7-cG6PC and […] AAV7-SaCas9. […] Specifically, one puppy (the first described above) received two doses of gene replacement therapy (e.g., AAV10 G6Pase at 3×10^12 vp/kg and AAV8 G6Pase at 1×10^13 vp/kg) at ages 2 and 3 months, respectively. The second puppy received only one gene replacement therapy at 2 months of age (e.g., AAV9 G6Pase at 3×10^13 vp/kg). Table 3 below details the treatment protocols used for both puppies.

canine G6PC locus = test: Nested integration PCR in transfected GSD Ia dog fibroblasts; type: cell-based
Protocol: Next, a nested PCR reaction was performed to detect levels of DNA integration in genomic DNA in the transfected fibroblasts. Fibroblast DNA were extracted using the Wizard Genomic DNA Purification Kit (Promega, Madison, WI, USA). The canine G6Pc locus was amplified by Q5 Taq Polymerase (NEB, Ipswich, MA, USA) with the following reagents: 5 μL of Q5 buffer, 5 μL of high GC enhancer solution, 2 μL of 2.5 mM dNTP mix, 1.25 μL of 10 uM primer P1 (5′-[…]-3′, SEQ ID NO: 59)), 1.25 μL of 10 uM primer P4 (5′-[…]-3′, SEQ ID NO: 62)), 9.25 μL of water, 1 μL (100 ng) of genomic DNA, and 0.25 μL of Q5 Taq Polymerase. Cycling conditions were 35 cycles of denaturation at 95° C. for 30 s, annealing at 59° C. for 30 s, extension at 72° C. for 2 min, followed by incubation at 4° C. One microliter of first-round PCR products was used in a nested reaction with the same conditions except primers were P2 (5′-[…]-3′ (SEQ ID NO: 60)) and P3 (5′-[…]-3′ (SEQ ID NO: 61)) and cycling was 30 cycles. Control primers were P5 (5′-[…]-3′ (SEQ ID NO: 63)) and P6 (5′-[…]-3′ (SEQ ID NO: 64)).
Sequencing of the integration PCR product (total sequence: SEQ ID NO: 52) confirmed the donor sequence was inserted in the dog G6PC gene at the exon 1/intron 1 boundary. […]

[2] = dogs treated as adults, months 4 and 16 after gene editing vectors
[3] = puppies treated as neonates, Months 4 and 16

Substance	G6Pase activity in liver (G6Pase activity in liver)	vector copy number in liver ([1]; dogs treated as adults, 4 months following gene editing (4M)) [vg/nucleus]	vector genomes in liver (qPCR) [1, 2]	vector genomes in liver (qPCR) [1, 3]	effect of gene replacement vector on recurrent hypoglycemia (GSD Ia puppies; puppies, given at 2 (and 3) months)	transgene integration (integration PCR) (canine G6PC locus)	vector copy number in liver, compared with AAV-G6Pase ([1]; dogs treated as adults, 4 months following gene editing)	hypoglycemia and survival in the first two months of life (GSD Ia puppies; GSD Ia puppies treated at 2 days of age)
AAV-G6Pase: gene replacement AAV vector delivering human G6Pase cDNA under a human G6Pase minimal promoter, episomal expression (SEQ ID NO: 49; Luo et al. 2011) [reference compound]	29±8 % of normal	< 0.1	detected	detected	reversed their symptoms			
AAV-cG6PC: AAV donor vector: canine G6Pc cDNA flanked by canine G6PC 5' and 3' homology arms (SEQ ID NO: 43)			detected	detected		no detectable integration events	Higher copy numbers	efficacious in preventing hypoglycemia and improving survival
